As usually defined, the inhibition is the drop in the measured response relative to a control, in per cent.

In this experiment the target is hPHT1 (human peptide/histidine transporter 1, SLC15A4) (Homo sapiens, UniProt Q8N697, L14A/L15A/L318A/V319A). Put plainly: inhibition of MDP uptake in hPHT1mut cells at […], mock-subtracted. Type of experiment: cell-based. The note with it: read-out: % inhibition at 2 mM.

The structures appear in SMILES notation.

hPHT1 (human peptide/histidine transporter 1, SLC15A4), sequence (Q8N697 whole entry L14A/L15A/L318A/V319A): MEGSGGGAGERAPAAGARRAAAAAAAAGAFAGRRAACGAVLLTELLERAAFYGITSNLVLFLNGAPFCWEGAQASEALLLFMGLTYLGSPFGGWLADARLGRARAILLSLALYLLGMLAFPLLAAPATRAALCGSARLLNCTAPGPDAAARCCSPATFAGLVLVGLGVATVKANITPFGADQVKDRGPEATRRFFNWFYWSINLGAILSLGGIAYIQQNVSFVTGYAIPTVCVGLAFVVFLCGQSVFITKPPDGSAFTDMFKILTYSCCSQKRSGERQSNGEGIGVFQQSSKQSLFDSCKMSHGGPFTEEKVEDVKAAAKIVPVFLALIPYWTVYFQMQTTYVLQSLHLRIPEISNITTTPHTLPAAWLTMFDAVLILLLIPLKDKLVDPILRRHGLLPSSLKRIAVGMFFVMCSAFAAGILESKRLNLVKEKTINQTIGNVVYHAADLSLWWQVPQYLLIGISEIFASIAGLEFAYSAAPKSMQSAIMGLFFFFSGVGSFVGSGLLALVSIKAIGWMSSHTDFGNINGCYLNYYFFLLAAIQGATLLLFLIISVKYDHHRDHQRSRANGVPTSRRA

For `C[C@H](CS)C(=O)N1CCC[C@H]1C(=O)O` [captopril], the inhibition at 2000 µM fell in the range of 70 to 85%.

For the compound `CC1=C(C(=O)O)N2C(=O)[C@@H](NC(=O)[C@H](N)c3ccc(O)cc3)[C@H]2SC1` [cefadroxil], the inhibition at 2000 µM lay in the range of 70 to 85%.

Consider `NCCCC[C@H](N[C@@H](CCc1ccccc1)C(=O)O)C(=O)N1CCC[C@H]1C(=O)O` [lisinopril], for which the inhibition at 2000 µM lay in the range of 70 to 85%.

With `CC1=C(C(=O)O)N2C(=O)[C@@H](NC(=O)[C@H](N)C3=CCC=CC3)[C@H]2SC1` [cephradine], the inhibition at 2000 µM lay within 70 to 85%.

For the origin of these results see PMC5826766 (Molecular pharmaceutics, 2018).
